≈ marks a conversion by molar mass, not a printed value. Where “and” joins values, the source holds several entries; their conditions need not be identical. Equal values may be shown once. *1 amine or outer side, *2 acyl side, *3 side chain or, on linkers, in order; H or OH if unused. Where a SMILES comes first, the peptide text is derived from it. Bridges are numbered along the chain shown (N, C = ends). Roman numbers before positions name the chains, in order. [ ]: non-standard residue; d: D form. Actinocin(9to1) = Cc1c2oc3c(C)ccc(C(=O)[*:1])c3nc-2c(C(=O)[*:2])c(N)c1=O; NMeV = CN[C@H](C(=O)O)C(C)C; Sar = CNCC(=O)O
Columns and labels:
mouse L-5178Y cells = assay: Effects on mouse L-5178Y cells (Test III); assay type: cell-based; details: 2 days
Procedure: A medium containing 1×10^5 cells/ml. was prepared using mouse L-5178Y cells cultivated on RPMI-1640 medium containing 10% fetal bovine serum for 3 days. The medium was placed in a 96-well U-type microplate in an amount of 50 μl. per well.
A portion of the test material, which was one of the extracts according to the invention described in the above examples, was dissolved in the medium to a final concentration in the medium as shown in Table II below. The amount of the solution per well was 60 μl. The test material thus prepared was incubated in a carbon-dioxide incubator at 37° C. for 2 days. After completion of the incubation, the cells were collected and counted well by well, and the cell counts were compared with cell count of the control which contained no test material. The cell could of the control was approximately 8.6×10^5 /ml. For activity comparison's sake, the same test was done with mitomycin C (MMC) or bleomycin (BLM). In the table below, T/C represents the ratio of count of the cells treated with the test material to that with no test material added. ID50 is the concentration of the test material required for decreasing concentration of the cells to 1/2 that of the control.
The neem extracts produced in Examples 5-7 above were tested for effects on mouse L-5178Y cells, sarcoma 180 ascites and solid tumors according to the methods described in Tests II-IV.

[1] = test system: sarcoma 180 ascites tumor; assay: Effects on sarcoma 180 ascites tumor (Test IV); assay type: in vivo, mouse (ICR); details: Table III; for T/C (TPCV ratio treated/control): 4 days, 7th day
Procedure: A portion of each of the extraction fractions was suspended or dissolved in 0.5% suspension of carboxymethylcellulose (CMC) in a phosphate buffered saline solution (PBS commercially available from GIBCO Laboratories, containing ca. 9.5 mM phosphate) to a predetermined concentration.
Mouse sarcoma 180 tumor cells which have been subcultivated intraperitoneally in ICR mice were drawn from the mouse together with the ascites and diluted with physiological saline solution to a cell count of 10^8 per ml. The tumor cell suspension thus prepared was transplanted by means of a syringe intraperitoneally into 4 week-old male ICR mice at a dose of 0.1 ml. Consequently, the cell count transplanted per mouse was 1×10^7.
The test material as prepared above was intraperitoneally administered at a dose of 0.1 ml. per mouse for 4 days once a day from the next day of the transplantation of mouse sarcoma 180 tumor cells. A group of 6 mice was employed for each concentration of each test material. […] As a control was administered the CMC-containing PBS as described above only in the same way as above. The dose is expressed as weight per kg. bodyweight of mouse.
On the 7th day of transplantation of the tumor cells the bodyweight of each mouse was measured (X). Then, ascites was thoroughly drawn from the mouse, followed by measurement of the bodyweight (Y). X-Y is taken as the amount of ascites.
The drawn ascites was the introduced into a hematocrit tube and then centrifuged at 15,000 G for 5 minutes using a hematocrit rotor at a low temperature. There was thus made determination of the ascitocrit value, that is, proportion of the cells present in the ascites which corresponded to the hematocrit value in hematology. The value multiplied by volume of the ascites gives the volume of the cells present in the ascites. This is designated as total packed cell volume (TPCV).
Effect on the tumor was rated ineffective (-) when the TPCV ratio of the treated to the control (T/C) was 100-66%, plus 1 (+) when it was 65-41%, plus 2 (++) when it was 40-11%, and plus 3 (+++) when it was 10-0%.

sarcoma 180 solid tumor = assay: Effects on sarcoma 180 solid tumor (Test V); assay type: in vivo, mouse (ICR); details: Table IV; for T/C (tumor weight ratio treated/control): 15th-21st day
Procedure: Test materials were prepared in the same manner as in Test IV under (1).
A cell suspension containing 1×10^8 cells per ml. was prepared in the same way as in Test IV under (2). Four week old-ICR mice was innoculated subcutaneously on the back with 0.1 ml. of the suspenstion by means of a syringe.
As in Test IV under (3), a group of 6 animals was used for each concentration of each test material.
Grown tumor tissue was resected on the 15th-21st day of the tumor cell transplantation and weighed. An average for the group of 6 animals was taken for the evaluation. The effect was evaluated on the basis of ratio of the average weight for the treated animals to that of the control animals. […] Ratios (T/C) of 100-71% were rated ineffective (-), of 70-51% plus 1 (+), of 50-21% plus 2 (++), and of 20-0% plus 3 (+++).

**Q.** With bleomycin [BLM] as the compound, how does the “T/C (cell count treated / no test material)” value (mouse L-5178Y cells; 5 μg./ml.) read?
**A.** 57.1%

**Q.** And the “T/C (cell count treated / no test material)” value (mouse L-5178Y cells; 10 μg./ml.)?
**A.** 46.1%

**Q.** And the “T/C (cell count treated / no test material)” value (mouse L-5178Y cells; 100 μg./ml.)?
**A.** 8.8%

**Q.** What about the ID50 (mouse L-5178Y cells; Table II, concentration decreasing cells to 1/2 of control) of the same compound?
**A.** 7.8 µg/mL

**Q.** And the Rating ([1]; 10 mg./kg.)?
**A.** +++ (plus 3 (+++) when it was 10-0%)

**Q.** What about the “T/C (TPCV ratio treated/control)” value ([1]; 10 mg./kg. i.p. once a day) of the same compound?
**A.** 0%

**Q.** And the “T/C (tumor weight ratio treated/control)” value (sarcoma 180 solid tumor; 10 mg./kg.)?
**A.** 43.5% and 52.3%

**Q.** For `Cc1c2oc3c(C)ccc(C(=O)N[C@@H]4C(=O)N[C@H](C(C)C)C(=O)N5CCC[C@H]5C(=O)N(C)CC(=O)N(C)[C@@H](C(C)C)C(=O)O[C@@H]4C)c3nc-2c(C(=O)N[C@@H]2C(=O)N[C@H](C(C)C)C(=O)N3CCC[C@H]3C(=O)N(C)CC(=O)N(C)[C@@H](C(C)C)C(=O)O[C@@H]2C)c(N)c1=O` [ACD, actinomycin D] (I: T[dV]P[Sar][NMeV] / II: T[dV]P[Sar][NMeV]; ester I:1-I:C, II:1-II:C; linker I:N-II:N via Actinocin(9to1)), which Rating ([1]; 0.1 mg./kg.) is on record?
**A.** +++ (plus 3 (+++) when it was 10-0%)

**Q.** What about the “T/C (TPCV ratio treated/control)” value ([1]; 0.1 mg./kg. i.p. once a day) of the same compound?
**A.** 0%

**Q.** What does the source list for `CO[C@@]12[C@H](COC(N)=O)C3=C(C(=O)C(C)=C(N)C3=O)N1C[C@@H]1N[C@@H]12` [MMC, mitomycin C]?
**A.** activity at 0.1 µg/mL (mouse L-5178Y cells; Mus musculus, L5178Y, 48 h, 0.1 μg./ml., read-out: T/C (cell count treated / no test material)): 47.9%; activity at 0.3 µg/mL (mouse L-5178Y cells; Mus musculus, L5178Y, 48 h, 0.3 μg./ml., read-out: T/C (cell count treated / no test material)): 24.7%; activity at 1 µg/mL (mouse L-5178Y cells; Mus musculus, L5178Y, 48 h, 1.0 μg./ml., read-out: T/C (cell count treated / no test material)): 13.4%; IC50 (mouse L-5178Y cells; Mus musculus, L5178Y, 48 h, Table II, concentration decreasing cells to 1/2 of control, read-out: ID50 (the source's name)): 0.09 µg/mL (≈ 0.269 µM); Rating ([1]; 0.5 mg./kg.): +++ (plus 3 (+++) when it was 10-0%); T/C (TPCV ratio treated/control) ([1]; 0.5 mg./kg. i.p. once a day): 0%; Rating ([1]; 1.5 mg./kg.): +++ (plus 3 (+++) when it was 10-0%); T/C (TPCV ratio treated/control) ([1]; 1.5 mg./kg. i.p. once a day): 0%; Rating (sarcoma 180 solid tumor; 0.5 mg./kg.): - (Ratios (T/C) of 100-71% were rated ineffective (-)); T/C (tumor weight ratio treated/control) (sarcoma 180 solid tumor; 0.5 mg./kg.): 71.0%; T/C (tumor weight ratio treated/control) (sarcoma 180 solid tumor; 1.5 mg./kg.): 32.5% and 50.2%

**Q.** What does the source list for `O=P1(N(CCCl)CCCl)NCCCO1` (centres unmarked) [CYP, cyclophosphamide]?
**A.** Rating ([1]; 33 mg./kg.): +++ (plus 3 (+++) when it was 10-0%); T/C (TPCV ratio treated/control) ([1]; 33 mg./kg. i.p. once a day): 0%; Rating ([1]; 67 mg./kg.): +++ (plus 3 (+++) when it was 10-0%); T/C (TPCV ratio treated/control) ([1]; 67 mg./kg. i.p. once a day): 0%; Rating (sarcoma 180 solid tumor; 33 mg./kg.): +++ (of 20-0% plus 3 (+++)); T/C (tumor weight ratio treated/control) (sarcoma 180 solid tumor; 33 mg./kg.): 0%; Rating (sarcoma 180 solid tumor; 67 mg./kg.): +++ (of 20-0% plus 3 (+++)); T/C (tumor weight ratio treated/control) (sarcoma 180 solid tumor; 67 mg./kg.): 0%

**Q.** `O=c1[nH]cc(F)c(=O)[nH]1` [Example 5-Fu, 5-fluorouracil] was tested. Which Rating ([1]; 20 mg./kg.) did it give?
**A.** +++ (plus 3 (+++) when it was 10-0%)

**Q.** What about the “T/C (TPCV ratio treated/control)” value ([1]; 20 mg./kg. i.p. once a day) of the same compound?
**A.** 0%

**Q.** What about the Rating (sarcoma 180 solid tumor; 20 mg./kg.) of the same compound?
**A.** + (of 70-51% plus 1 (+))

**Q.** What about the “T/C (tumor weight ratio treated/control)” value (sarcoma 180 solid tumor; 20 mg./kg.) of the same compound?
**A.** 47.8%
